Values of other authors in patent US20150148304A1, “Novel Peptides and Analogs for Use in the Treatment of Macrophage Activation Syndrome” (Soligenix, Inc., priority 2013, published 2015).

Columns and labels:
TLR9 = biological target: T1, TLR9 (Homo sapiens, UniProt Q9NR96); details: average; US 2011/0136845 Trawick et al.; cited from earlier work
T1 sequence (Q9NR96 26-1032): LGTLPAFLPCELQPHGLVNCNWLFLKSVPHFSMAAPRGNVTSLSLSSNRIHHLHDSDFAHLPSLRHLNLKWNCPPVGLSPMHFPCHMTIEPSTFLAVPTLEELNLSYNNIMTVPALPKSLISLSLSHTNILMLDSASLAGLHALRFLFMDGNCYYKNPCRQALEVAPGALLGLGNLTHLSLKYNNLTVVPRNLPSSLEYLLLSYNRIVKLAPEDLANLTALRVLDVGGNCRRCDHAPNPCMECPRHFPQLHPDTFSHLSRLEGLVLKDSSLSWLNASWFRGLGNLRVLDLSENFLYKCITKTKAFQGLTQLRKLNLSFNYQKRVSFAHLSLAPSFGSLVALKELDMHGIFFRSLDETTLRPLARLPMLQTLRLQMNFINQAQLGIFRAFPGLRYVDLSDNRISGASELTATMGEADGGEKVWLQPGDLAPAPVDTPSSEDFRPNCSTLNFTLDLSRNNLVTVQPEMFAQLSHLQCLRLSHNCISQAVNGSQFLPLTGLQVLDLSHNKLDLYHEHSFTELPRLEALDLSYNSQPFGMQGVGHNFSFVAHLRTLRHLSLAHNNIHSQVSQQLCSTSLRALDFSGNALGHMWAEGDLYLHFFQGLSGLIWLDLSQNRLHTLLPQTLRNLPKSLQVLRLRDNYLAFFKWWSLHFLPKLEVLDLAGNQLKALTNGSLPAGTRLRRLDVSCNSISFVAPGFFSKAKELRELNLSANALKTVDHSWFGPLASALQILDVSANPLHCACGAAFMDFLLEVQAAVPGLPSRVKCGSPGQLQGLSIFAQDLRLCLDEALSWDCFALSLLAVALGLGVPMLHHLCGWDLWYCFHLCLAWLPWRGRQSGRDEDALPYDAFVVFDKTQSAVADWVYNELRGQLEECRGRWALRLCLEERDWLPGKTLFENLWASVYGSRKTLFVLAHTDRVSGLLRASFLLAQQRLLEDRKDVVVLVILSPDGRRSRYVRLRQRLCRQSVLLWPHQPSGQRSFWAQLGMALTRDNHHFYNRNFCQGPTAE

[1] = cited from earlier work
[2] = test system: macrophage activation syndrome; details: Ravelli et al. 2001, cited from earlier work

## O=C1CC[C@]2(O)[C@@H]3Cc4ccc(O)c5c4[C@]2(CCN3CC2CC2)[C@@H]1O5 [(+)-Naltrexone]
TLR9
  inhibition of TLR9: 51%

## O=C1CC[C@@]2(O)[C@H]3Cc4ccc(O)c5c4[C@@]2(CCN3CC2CC2)[C@H]1O5 [Naltrexone]
[1]; oral administration
  time of peak plasma levels after dosing: one
[1]; share of the elimination pathway
  urinary excretion of unchanged Naltrexone: less than 2%

## cyclosporin A [CyA]
[2]; patients, Mouy et al. 1996
  efficacy in severe or corticosteroid-resistant macrophage activation syndrome: effective
[2]; some patients
  time to disappearance of fever and improvement of laboratory abnormalities: 12 to 24 h
